Reference: ChEMBL document CHEMBL1201862, “PubChem BioAssay data set” (2004)
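Step 1: Grow cells in 96-well plates. Step 2: Expose to compound for 48 hours at 5 concentrations. Step 3: Interpolate endpoints linearly; if unreached, use highest concentration. At the GI50, growth is halved.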 The source made the active and inactive calls. No stated cut-off is given here; in the data, active = GI50 up to about 1.1 µM and inactive = higher.

Tests used:
Test in all cases: DTP human tumour cell line panel, 48 h
[1] = tested on: COLO 205
[2] = tested on: Hs-578T
[3] = tested on: U-251
[4] = tested on: NCI-H460
[5] = tested on: DU-145
[6] = tested on: IGROV-1
[7] = tested on: A549
[8] = tested on: HOP-92
[9] = tested on: MDA-MB-435
[10] = tested on: BT-549
[11] = tested on: NCI-H23
[12] = tested on: HCC 2998
[13] = tested on: NCI-H522
[14] = tested on: RPMI-8226
[15] = tested on: CAKI-1
[16] = tested on: UACC-62
[17] = tested on: LOX IMVI
[18] = tested on: SF-268
[19] = tested on: OVCAR-8
[20] = tested on: MOLT-4

Measured: GI50

O=C(O)c1ccc(C(=O)Nc2cccc3ccccc23)c(C(=O)O)c1
inactive: [1] > 100 µM | [2] > 100 µM | [3] > 100 µM | [4] > 100 µM | [5] > 100 µM | [6] > 100 µM | [7] > 100 µM | [8] > 100 µM | [9] > 100 µM | [10] > 100 µM | [11] > 100 µM | [12] > 100 µM | [13] > 100 µM | [14] > 100 µM | [15] > 100 µM | [16] > 100 µM | [17] > 100 µM | [18] > 100 µM | [19] > 100 µM | [20] > 100 µM

OC1COC(OCc2ccccc2)C(O)C1O (stereo not given)
inactive: [1] > 100 µM | [2] > 100 µM | [3] > 100 µM | [4] > 100 µM | [5] > 100 µM | [6] > 100 µM | [7] > 100 µM | [8] > 100 µM | [9] > 100 µM | [10] > 100 µM | [11] > 100 µM | [12] > 100 µM | [13] > 100 µM | [14] > 100 µM | [15] > 100 µM | [16] > 100 µM | [17] > 100 µM | [18] > 100 µM | [19] > 100 µM | [20] > 100 µM

CCOC(=O)[C@H](O)[C@@H](O)C(=O)NCc1ccc(C(=O)c2ccccc2)cc1
inactive: [1] > 100 µM | [2] > 100 µM | [3] > 100 µM | [4] > 100 µM | [5] > 100 µM | [6] > 100 µM | [7] > 100 µM | [8] > 100 µM | [9] > 100 µM | [10] > 100 µM | [11] > 100 µM | [12] > 100 µM | [13] > 100 µM | [14] > 100 µM | [15] > 100 µM | [16] > 100 µM | [17] > 100 µM | [18] > 100 µM | [19] > 100 µM | [20] > 100 µM

COc1ccccc1OCC(=N/NC(=O)c1ccncc1)/N=C/c1cccnc1
inactive: [1] > 100 µM | [2] > 100 µM | [3] > 100 µM | [4] > 100 µM | [5] > 100 µM | [6] > 100 µM | [7] > 100 µM | [8] > 100 µM | [9] > 100 µM | [10] > 100 µM | [11] > 100 µM | [12] > 100 µM | [13] > 100 µM | [14] > 100 µM | [15] > 100 µM | [16] > 100 µM | [17] > 100 µM | [18] > 100 µM | [19] > 100 µM | [20] > 100 µM

COc1ccccc1C1C2=C(COC2=O)Oc2cc3c(cc21)OCO3 (stereo not given)
inactive: [1] 1.78 µM | [2] 2.22 µM | [3] 3.66 µM | [4] 3.64 µM | [5] 3.39 µM | [6] 2.53 µM | [7] 3.87 µM | [8] 8.3 µM | [10] 66.2 µM | [11] 3.22 µM | [12] 3.23 µM | [14] 3.27 µM | [15] 3.55 µM | [17] 2.27 µM | [18] 4.88 µM | [19] 3.39 µM | [20] 1.59 µM
active: [9] 0.249 µM | [13] 0.619 µM | [16] 1.06 µM

O=[N+]([O-])C(C(Cl)=C(Cl)Cl)=C(n1nnc2ccccc21)n1nnc2ccccc21
inactive: [1] 19.5 µM | [2] 35.8 µM | [3] 36.1 µM | [4] 51.6 µM | [5] > 86.3 µM | [6] 36.6 µM | [7] 48.5 µM | [8] 43.5 µM | [9] 27.9 µM | [10] > 51.1 µM | [11] 37.6 µM | [12] 49.1 µM | [13] 18.5 µM | [14] 24.8 µM | [15] 30.3 µM | [16] 16.1 µM | [17] 24.4 µM | [18] 30.1 µM | [19] 21.5 µM | [20] 9.33 µM

Clc1nc(Cl)c(CBr)c(Cl)n1
active: [14] 0.867 µM
inactive: [1] 7.01 µM | [2] 3.8 µM | [3] 4.06 µM | [4] 4.3 µM | [5] 16.7 µM | [6] 4.41 µM | [7] 16 µM | [8] 2.28 µM | [9] 5.05 µM | [10] 2.17 µM | [11] 14.6 µM | [12] 10.8 µM | [13] 1.5 µM | [15] 10.9 µM | [16] 5.08 µM | [17] 1.83 µM | [18] 8.02 µM | [19] 3.27 µM | [20] 1.45 µM
